According to PMC7821958, “Synthesis, in vitro enzyme activity and molecular docking studies of new benzylamine-sulfonamide derivatives as selective MAO-B inhibitors” (Journal of Enzyme Inhibition and Medicinal Chemistry, 2020):
Where two headings read alike, the source gives them in different places.

Columns and labels:
[1] = biological target: T1, hMAO-B (Homo sapiens, UniProt P27338); assay: MAO-B inhibition assay, fluorometric (Amplex Red / horseradish peroxidase-coupled); format: biochemical; details: for inhibition at 1000 µM: 10^−3 M; for inhibition at 100 µM: 10^−4 M; for inhibition at 10 µM: 10^−5 M; for inhibition at 1 µM: 10^−6 M; for inhibition at 0.1 µM: 10^−7 M; for inhibition at 0.01 µM: 10^−8 M; for inhibition at 0.001 µM: 10^−9 M; for IC50: Table 2, mean ± SD, read-out: IC50 against MAO-B;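 for all read-outs here: fluorescence read at Ex 535 nm and Em 587 nm over 30 min, linear phase, inhibition relative to uninhibited control wells, IC50 from log concentration–response curves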
T1 construct: purchased Sigma-Aldrich (Steinheim, Germany)
T1 sequence (P27338 1-520): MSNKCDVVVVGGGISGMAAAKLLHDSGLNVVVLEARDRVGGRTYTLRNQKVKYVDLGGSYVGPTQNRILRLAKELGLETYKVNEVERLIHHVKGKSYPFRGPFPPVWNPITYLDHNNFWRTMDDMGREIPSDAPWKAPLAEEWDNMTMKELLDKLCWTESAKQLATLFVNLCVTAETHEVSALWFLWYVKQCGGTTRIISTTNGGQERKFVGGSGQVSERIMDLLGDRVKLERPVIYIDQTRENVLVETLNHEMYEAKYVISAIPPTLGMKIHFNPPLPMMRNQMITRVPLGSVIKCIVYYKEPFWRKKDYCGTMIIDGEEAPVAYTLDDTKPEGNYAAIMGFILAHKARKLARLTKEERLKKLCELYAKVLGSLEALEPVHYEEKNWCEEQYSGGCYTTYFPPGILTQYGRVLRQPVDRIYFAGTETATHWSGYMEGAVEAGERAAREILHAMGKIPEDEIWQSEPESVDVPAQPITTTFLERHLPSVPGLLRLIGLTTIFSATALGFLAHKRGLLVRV
Description: FCt2: Fluorescence of a control well measured at t2 time, FCt1: Fluorescence of a control well measured at t2 time, FIt2: Fluorescence of an inhibitor well measured at t2 time, FIt1: Fluorescence of an inhibitor well measured at t1 time,

[2] = biological target: T2, hMAO-A (Homo sapiens, UniProt P21397); assay: MAO-A inhibition assay, fluorometric (Amplex Red / horseradish peroxidase-coupled); format: biochemical; details: read-out: MAO-A % Inhibition
T2 construct: purchased Sigma-Aldrich (Steinheim, Germany)
T2 sequence (P21397 1-527): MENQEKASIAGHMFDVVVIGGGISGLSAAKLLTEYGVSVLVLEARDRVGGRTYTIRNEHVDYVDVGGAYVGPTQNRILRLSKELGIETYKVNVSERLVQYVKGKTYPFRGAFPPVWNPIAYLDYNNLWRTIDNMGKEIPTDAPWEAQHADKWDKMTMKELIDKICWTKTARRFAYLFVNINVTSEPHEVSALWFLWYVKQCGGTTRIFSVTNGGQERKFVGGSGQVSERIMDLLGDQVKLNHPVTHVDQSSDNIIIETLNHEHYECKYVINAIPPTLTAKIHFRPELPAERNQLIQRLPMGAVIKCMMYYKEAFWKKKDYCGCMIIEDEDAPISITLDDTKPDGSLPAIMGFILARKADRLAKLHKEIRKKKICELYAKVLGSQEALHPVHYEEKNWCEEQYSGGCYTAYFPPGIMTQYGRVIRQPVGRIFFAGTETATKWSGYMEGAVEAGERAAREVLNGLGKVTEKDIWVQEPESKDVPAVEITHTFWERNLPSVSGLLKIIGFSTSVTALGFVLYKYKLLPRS
Experimental: A Biotek Precision XS robotic system (USA) was used for all pipetting operations. Measurements were performed with the use of BioTek-Synergy H1 microplate reader (USA) based upon the fluorescence generated (excitation, 535 nm, emission, 587 nm) over a 30 min period, in which the fluorescence increased linearly.
Enzymatic assay was performed according to recent method pronounced by our research group[17]^,[20–22]. Control, blank and all concentrations of obtained compounds were tested in quadruplicate and inhibition percent was calculated with following equation: % Inhibition=(FCt2 − FCt1) − (FIt2 − FIt1)/FCt2 − FCt1 × 100
FCt2: Fluorescence of a control well measured at t2 time, FCt1: Fluorescence of a control well measured at […]: Fluorescence of an inhibitor well measured at t2 time, FIt1: Fluorescence of an inhibitor well measured at t1 time,
The IC50 values were calculated using a dose-response curve achieved by plotting the percentage inhibition versus the log concentration using GraphPad ‘PRISM’ software (version 5.0).
All the obtained benzylamine-sulphonamide derivatives 4a–4u were investigated for their inhibitory activity against MAO isoforms using a previously described in vitro fluorometric method, which is based on the detection of H2O2 in a horseradish peroxidase-coupled reaction using 10-acetyl-3,7-dihydroxyphenoxazine (Amplex Red reagent)[17]^,[20–22].
The assay was carried out in two steps. […].

Row | Structure (SMILES) | inhibition at 1000 µM [1] [%] | inhibition at 100 µM [1] [%] | inhibition at 1000 µM ([2]; 10^−3 M) [%] | inhibition at 100 µM ([2]; 10^−4 M) [%] | melting point [°C] | inhibition at 10 µM [1] [%] | inhibition at 1 µM [1] [%] | inhibition at 0.1 µM [1] [%] | inhibition at 0.01 µM [1] [%] | inhibition at 0.001 µM [1] [%] | IC50 [1] [µM] | inhibition at 100 µM [2] [%] | inhibition at 1000 µM [2] [%]
1 | Cc1ccc(CN(C(=O)CSc2nnnn2-c2ccccc2)c2ccc(S(N)(=O)=O)cc2)cc1 [Compound 4o, N-(4-Methylbenzyl)-2-((1-phenyl-1H-tetrazol-5-yl)thio)-N-(4-sulfamoylphenyl)acetamide] | 68.3 ± 0.824 | 30.3 ± 0.721 | 44.2 ± 0.877 | 28.7 ± 0.509 |  |  |  |  |  |  |  |  | 
2 | Cc1nnc(SCC(=O)N(Cc2ccccc2)c2ccc(S(N)(=O)=O)cc2)s1 [Compound 4c, N-Benzyl-2-((5-methyl-1,3,4-thiadiazol-2-yl)thio)-N-(4-sulfamoylphenyl)acetamide] | 91.1 ± 1.25 | 48.3 ± 0.855 | 40.6 ± 0.749 | 24.1 ± 0.61 | 164 to 166 |  |  |  |  |  |  |  | 
3 | Cc1ccc(CN(C(=O)CSc2nc3ccccc3o2)c2ccc(S(N)(=O)=O)cc2)cc1 [Compound 4r, 2-(Benzoxazol-2-ylthio)-N-(4-methylbenzyl)-N-(4-sulfamoylphenyl)acetamide] | 67.5 ± 0.957 | 33.1 ± 0.798 | 42.4 ± 0.821 | 32.7 ± 0.697 | 148 to 150 |  |  |  |  |  |  |  | 
4 | Cc1ccc(CN(C(=O)CSc2nc3ccccc3s2)c2ccc(S(N)(=O)=O)cc2)cc1 [Compound 4s, 2-(Benzothiazol-2-ylthio)-N-(4-methylbenzyl)-N-(4-sulfamoylphenyl)acetamide] | 72.7 ± 1 | 40.3 ± 0.835 | 38.2 ± 0.734 | 33 ± 0.697 | 170 to 172 |  |  |  |  |  |  |  | 
5 | COc1ccc2sc(SCC(=O)N(Cc3ccc(C)cc3)c3ccc(S(N)(=O)=O)cc3)nc2c1 [Compound 4u, 2-((5-Methoxybenzothiazol-2-yl)thio)-N-(4-methylbenzyl)-N-(4-sulfamoylphenyl)acetamide] | 65.1 ± 0.985 | 36 ± 0.726 | 36.8 ± 0.678 | 29.9 ± 0.539 |  |  |  |  |  |  |  |  | 
6 | Cn1cnnc1SCC(=O)N(Cc1ccccc1)c1ccc(S(N)(=O)=O)cc1 [Compound 4b, N-Benzyl-2-((4-methyl-4H-1,2,4-triazol-3-yl)thio)-N-(4-sulfamoylphenyl)acetamide] | 90.3 ± 1.3 | 86.3 ± 1.29 | 37.6 ± 0.714 | 20.1 ± 0.621 | 201 to 203 | 82.5 ± 1.11 | 76.9 ± 1.27 | 45.3 ± 0.974 | 32.6 ± 0.728 | 20.4 ± 0.683 | 0.188 ± 0.008 |  | 
7 | Cc1ccc(CN(C(=O)CSc2nnc(C)s2)c2ccc(S(N)(=O)=O)cc2)cc1 [Compound 4m, 2-((5-Methyl-1,3,4-thiadiazol-2-yl)thio)-N-(4-methylbenzyl)-N-(4-sulfamoylphenyl)acetamide] | 76.3 ± 1 | 40.1 ± 0.799 | 37.4 ± 0.85 | 31.1 ± 0.729 | 178 to 180 |  |  |  |  |  |  |  | 
8 | NS(=O)(=O)c1ccc(N(Cc2ccccc2)C(=O)CSc2nc3ccccc3s2)cc1 [Compound 4h, 2-(Benzothiazol-2-ylthio)-N-benzyl-N-(4-sulfamoylphenyl)acetamide] | 96.2 ± 1.1 | 48.8 ± 0.879 | 39.1 ± 0.821 | 20.3 ± 0.608 | 88 to 90 |  |  |  |  |  |  |  | 
9 | Cc1ccc(CN(C(=O)CSc2nccn2C)c2ccc(S(N)(=O)=O)cc2)cc1 [Compound 4k, 2-((1-Methyl-1H-imidazol-2-yl)thio)-N-(4-methylbenzyl)-N-(4-sulfamoylphenyl)acetamide] | 79.5 ± 0.957 | 39 ± 0.702 | 39.3 ± 0.701 | 30.3 ± 0.582 | 153 to 155 |  |  |  |  |  |  |  | 
10 | NS(=O)(=O)c1ccc(N(Cc2ccccc2)C(=O)CSc2nnnn2-c2ccccc2)cc1 [Compound 4e, N-Benzyl-2-((1-phenyl-1H-tetrazol-5-yl)thio)-N-(4-sulfamoylphenyl)acetamide] | 90.1 ± 1.01 | 48.4 ± 0.721 | 41.5 ± 0.899 | 28 ± 0.714 |  |  |  |  |  |  |  |  | 
11 | C#CCN(C)CCCOc1ccc(Cl)cc1Cl [Clorgiline, reference compound] |  |  |  |  |  |  |  |  |  |  |  | 98.3 ± 1.82 | 99.4 ± 1.96
12 | Cn1ccnc1SCC(=O)N(Cc1ccccc1)c1ccc(S(N)(=O)=O)cc1 [Compound 4a, N-Benzyl-2-((1-methyl-1H-imidazol-2-yl)thio)-N-(4-sulfamoylphenyl)acetamide] | 92.3 ± 1.11 | 47 ± 0.958 | 35.1 ± 0.989 | 26.5 ± 0.856 | 137 to 139 |  |  |  |  |  |  |  | 
13 | COc1ccc2sc(SCC(=O)N(Cc3ccccc3)c3ccc(S(N)(=O)=O)cc3)nc2c1 [Compound 4j, N-Benzyl-2-((5-methoxybenzothiazol-2-yl)thio)-N-(4-sulfamoylphenyl)acetamide] | 90.8 ± 1.25 | 45.1 ± 0.958 | 48.2 ± 0.825 | 37.4 ± 0.679 |  |  |  |  |  |  |  |  | 
14 | Cc1ccc(CN(C(=O)CSc2nncn2C)c2ccc(S(N)(=O)=O)cc2)cc1 [Compound 4l, 2-((4-Methyl-4H-1,2,4-triazol-3-yl)thio)-N-(4-methylbenzyl)-N-(4-sulfamoylphenyl)acetamide] | 74.2 ± 1.05 | 43.8 ± 0.882 | 42.3 ± 0.63 | 25.2 ± 0.712 | 229 to 231 |  |  |  |  |  |  |  | 
15 | NS(=O)(=O)c1ccc(N(Cc2ccccc2)C(=O)CSc2ccccn2)cc1 [Compound 4f, N-Benzyl-2-(pyridin-2-ylthio)-N-(4-sulfamoylphenyl)acetamide] | 90.6 ± 1.39 | 83.3 ± 1.26 | 46 ± 0.863 | 30.1 ± 0.627 |  | 76.3 ± 1.11 | 73.2 ± 1.06 | 48.6 ± 0.957 | 32.5 ± 0.721 | 20.9 ± 0.623 | 0.146 ± 0.006 |  | 
16 | Cc1ccc(CN(C(=O)CSc2ccccn2)c2ccc(S(N)(=O)=O)cc2)cc1 [Compound 4p, N-(4-Methylbenzyl)-2-(pyridin-2-ylthio)-N-(4-sulfamoylphenyl)acetamide] | 70.5 ± 1.07 | 35.6 ± 0.622 | 45.2 ± 0.971 | 24.9 ± 0.792 | 121 to 123 |  |  |  |  |  |  |  | 
17 | NS(=O)(=O)c1ccc(N(Cc2ccccc2)C(=O)CSc2nc3ccccc3o2)cc1 [Compound 4g, 2-(Benzoxazol-2-ylthio)-N-benzyl-N-(4-sulfamoylphenyl)acetamide] | 94.7 ± 1.34 | 47.3 ± 0.963 | 47.2 ± 0.979 | 32.2 ± 0.621 | 82 to 84 |  |  |  |  |  |  |  | 
18 | Cn1nnnc1SCC(=O)N(Cc1ccccc1)c1ccc(S(N)(=O)=O)cc1 [Compound 4d, N-Benzyl-2-((1-methyl-1H-tetrazol-5-yl)thio)-N-(4-sulfamoylphenyl)acetamide] | 91.6 ± 1.25 | 79.7 ± 1.46 | 39.2 ± 0.65 | 29.5 ± 0.489 |  | 76.2 ± 1.06 | 70.9 ± 1.01 | 47.5 ± 0.957 | 29.7 ± 0.723 | 15.2 ± 0.602 | 0.127 ± 0.005 |  | 
19 | Cc1ccc(CN(C(=O)CSc2nnnn2C)c2ccc(S(N)(=O)=O)cc2)cc1 [Compound 4n, 2-((1-Methyl-1H-tetrazol-5-yl)thio)-N-(4-methylbenzyl)-N-(4-sulfamoylphenyl)acetamide] | 72.2 ± 0.959 | 38.3 ± 0.638 | 40.2 ± 0.97 | 21.5 ± 0.632 |  |  |  |  |  |  |  |  | 
